Laboratory results published in the OPERA property sets (Mansouri et al. 2018).
≈ marks a conversion by molar mass, not a printed value.

`CC(NCCC#N)C(=O)O` (configuration not stated) gave a solubility (25 °C) of 985 mM (≈ 140000 µg/mL).

Molecule `NC(=O)NCO` has a solubility (28 °C) of 451 mM (≈ 40600 µg/mL).

Work on `CC(C)(C(=O)O)C(C)(CC(=O)O)C(=O)O` (configuration not stated) yielded a solubility (20 °C) of 774 mM (≈ 169000 µg/mL).

`COc1c(O)ccc(C=O)c1C` gave a solubility (25 °C) of 42.1 mM (≈ 7000 µg/mL).

Work on `COc1c(C(=O)O)cccc1C(=O)O` yielded a solubility (20 °C) of 5.1 mM (≈ 1000 µg/mL).

With `Oc1ccc(C2CCCCC2)cc1` the solubility (25 °C) was 0.34 mM (≈ 60 µg/mL).

Work on `OCc1ccc(Br)cc1` yielded a solubility (20 °C) of 11.8 mM (≈ 2200 µg/mL).

In the case of `O=C1CNC(=O)C(Cc2ccc(O)cc2)N1` (configuration not stated), the solubility is reported as 90.8 mM (≈ 20000 µg/mL).

With `CCCCCCCCCNC(=O)c1cccnc1` the solubility (25 °C) was 0.725 mM (≈ 180 µg/mL).

`O=C(O)C(I)=C(Br)I` gave a solubility (20 °C) of 51.4 mM (≈ 20700 µg/mL).

With `O=c1[nH]c(-c2ccccc2)ncc1Br` the solubility was 0.332 mM (≈ 83.3 µg/mL).

`Nc1c(S(=O)(=O)O)cc(S(=O)(=O)O)c2ccc(S(=O)(=O)O)cc12` gave a solubility (20 °C) of 480 mM (≈ 184000 µg/mL).

Work on `Cc1cc(Cl)cc(C)c1O` yielded a solubility (25 °C) of 21.1 mM (≈ 3300 µg/mL).

With `O=S(=O)(O)c1ccc(/N=N/c2c(O)ccc3ccccc23)c2ccccc12` the solubility was 68.7 mM (≈ 26000 µg/mL).

With `O=C(O)C(S)CS` (configuration not stated) the solubility was 579 mM (≈ 80000 µg/mL).

In the case of `OCc1ccc(I)cc1`, the solubility (20 °C) is reported as 1.79 mM (≈ 420 µg/mL).

`C1CCC2NCCCC2C1` (configuration not stated) gave a solubility (25 °C) of 82.6 mM (≈ 11500 µg/mL).

For `c1ccc2c3c(ccc2c1)Sc1ccc2ccccc2c1N3`, the solubility (20 °C) was 1.24e-05 mM (≈ 0.0037 µg/mL).

In the case of `Cc1ccc(S(C)(=O)=O)cc1`, the solubility (25 °C) is reported as 10.3 mM (≈ 1750 µg/mL).

For `Cn1c(=O)c2n[se]nc2n(C)c1=O`, the solubility (20 °C) was 5.02 mM (≈ 1230 µg/mL).

In the case of `O=C1CCCCCCCN1`, the solubility (22 °C) is reported as 4290 mM (≈ 606000 µg/mL).

Work on `CC(C)OC(=O)C(C)(C)O` yielded a solubility of 1030 mM (≈ 150000 µg/mL).

With `O=C(O)CCCC(C(=O)O)(c1ccccc1)c1ccccc1` the solubility (20 °C) was 0.67 mM (≈ 200 µg/mL).

With `O=C(O)CCCCCc1ccccc1` the solubility (30 °C) was 2.5 mM (≈ 480 µg/mL).

With `CN(C)CCCCl` the solubility was 633 mM (≈ 77000 µg/mL).

With `O=C(O)C=C(Br)Br` the solubility (20 °C) was 146 mM (≈ 33500 µg/mL).

Molecule `COCCCCC=O` has a solubility of 2870 mM (≈ 333000 µg/mL).

Molecule `Cc1nc(C)c(C(=O)O)cc1C(=O)O` has a solubility (20 °C) of 1.55 mM (≈ 303 µg/mL).

Molecule `CCCCC1(CCCC)C(=O)NC(=O)NC1=O` has a solubility (20 °C) of 1.33 mM (≈ 320 µg/mL).

In the case of `Cc1ccc(C(=O)O)o1`, the solubility (20 °C) is reported as 150 mM (≈ 18900 µg/mL).

With `O=C1OCc2ccc3ccccc3c21` the solubility was 0.494 mM (≈ 91 µg/mL).

Molecule `CN1C(=O)COc2ccccc21` has a solubility (20 °C) of 7.17 mM (≈ 1170 µg/mL).

`CCCCOC(=O)NS(N)(=O)=O` showed a solubility (25 °C) of 91.7 mM (≈ 18000 µg/mL).

`N#Cc1cccc(N)c1` gave a solubility (20 °C) of 67.7 mM (≈ 8000 µg/mL).

With `CC(C(=O)O)C(C)(C)CCC(=O)O` (configuration not stated) the solubility (26 °C) was 29.8 mM (≈ 5600 µg/mL).

Molecule `CC(=O)NC(=O)NC(C)=O` has a solubility (25 °C) of 486 mM (≈ 70000 µg/mL).

Molecule `O=C(O)c1cccc2ncccc12` has a solubility (20 °C) of 2.1 mM (≈ 364 µg/mL).

Molecule `Oc1ccc(-c2ccccc2)cc1O` has a solubility of 8.59 mM (≈ 1600 µg/mL).

Molecule `CCc1c[nH]c(=O)nc1N` has a solubility (25 °C) of 95.6 mM (≈ 13300 µg/mL).

Work on `Cn1c(=O)[nH]n(-c2ccccc2)c1=O` yielded a solubility of 1.05 mM (≈ 200 µg/mL).

Molecule `CCCCCCCCOCC(O)CO` (configuration not stated) has a solubility (25 °C) of 12 mM (≈ 2450 µg/mL).

Work on `CC(=O)C1(C)CO1` (configuration not stated) yielded a solubility (23 °C) of 2400 mM (≈ 240000 µg/mL).

For `O=I(=O)c1ccccc1`, the solubility (25 °C) was 14.4 mM (≈ 3400 µg/mL).

In the case of `CCOCC(N)C(=O)O` (configuration not stated), the solubility (20 °C) is reported as 3340 mM (≈ 445000 µg/mL).

With `CC(=O)OCC(C)OC(C)=O` (configuration not stated) the solubility (25 °C) was 624 mM (≈ 100000 µg/mL).

Molecule `CCCCCCCCCCCNC(=O)c1cccnc1` has a solubility (25 °C) of 0.941 mM (≈ 260 µg/mL).

Molecule `CCOc1ccc(C(=O)O)c2ccccc12` has a solubility (25 °C) of 0.0772 mM (≈ 16.7 µg/mL).

`CC1OC(=O)c2cc([N+](=O)[O-])ccc21` (configuration not stated) gave a solubility (25 °C) of 2.42 mM (≈ 468 µg/mL).

For `O=C(O)C(=O)Nc1ccc(Cl)cc1Cl`, the solubility (25 °C) was 5.29 mM (≈ 1240 µg/mL).

For `CCOc1nc(OCC)nc(OCC)n1`, the solubility (25 °C) was 32.8 mM (≈ 7000 µg/mL).

`CCCC(Br)(CCC)C(N)=O` showed a solubility of 14.9 mM (≈ 3300 µg/mL).

With `O=C(O)c1cc(Br)ccc1Cl` the solubility (21 °C) was 11.2 mM (≈ 2630 µg/mL).

Work on `Cc1nc2c(c(=O)n(C)c(=O)n2C)n1C` yielded a solubility (25 °C) of 35.5 mM (≈ 7400 µg/mL).

`Sc1nc2ccccc2o1` gave a solubility (25 °C) of 6.61 mM (≈ 1000 µg/mL).

With `O=[N+]([O-])c1cccc(P(=O)(O)O)c1` the solubility (22 °C) was 4830 mM (≈ 980000 µg/mL).

In the case of `O=C(O)c1oc(Cl)c(Cl)c1Cl`, the solubility (20 °C) is reported as 6.04 mM (≈ 1300 µg/mL).

For `Nc1ccc(CC(=O)c2ccccc2)cc1`, the solubility was 15.7 mM (≈ 3310 µg/mL).

In the case of `O=c1nc[nH]c2nc(-c3ccccc3)c(-c3ccccc3)nc12`, the solubility (20 °C) is reported as 0.666 mM (≈ 200 µg/mL).

In the case of `CC(=O)CC(=O)c1ccccc1`, the solubility (25 °C) is reported as 2.36 mM (≈ 383 µg/mL).

`CCCCOCCOC(N)=O` showed a solubility of 310 mM (≈ 50000 µg/mL).

With `O=C(O)c1occ(Cl)c1Cl` the solubility (20 °C) was 14.9 mM (≈ 2700 µg/mL).

`CCC(C)CC(O)CC` (configuration not stated) gave a solubility (25 °C) of 13.8 mM (≈ 1800 µg/mL).
